Data reported in patent publication US8058510B2, “Method and means to modulate programmed cell death in eukaryotic cells” (Bayer Bioscience N.V., priority 1998, dated 2011).
“Also recorded” adds a separate entry of the source.

B1: APP: NAP protein of Arabidopsis thaliana (SEQ ID No 6), non-conventional PARP, expressed in yeast (protein, listed as Arabidopsis thaliana)
chain: MANKLKVDELRLKLAERGLSTTGVKAVLVERLEEAIAEDTKKEESKSKRKRNSSNDTYESNKLIAIGEFRGMIVKELREEAIKRGLDTTGTKKDLLERLCNDANNVSNAPVKSSNGTDEAEDDNNGFEEEKKEEKIVTATKKGAAVLDQWIPDEIKSQYHVLQRGDDVYDAILNQTNVRDNNNKFFVLQVLESDSKKTYMVYTRWGRVGVKGQSKLDGPYDSWDRAIEIFTNKFNDKTKNYWSDRKEFIPHPKSYTWLEMDYGKEENDSPVNNDIPSSSSEVKPEQSKLDTRVAKFISLICNVSMMAQHMMEIGYNANKLPLGKISKSTISKGYEVLKRISEVIDRYDRTRLEELSGEFYTVIPHDFGFKKMSQFVIDTPQKLKQKIEMVEALGEIELATKLLSVDPGLQDDPLYYHYQQLNCGLTPVGNDSEEFSMVANYMENTHAKTHSGYTVEIAQLFRASRAVEADRFQQFSSSKNRMLLWHGSRLTNWAGILSQGLRIAPPEAPVTGYMFGKGVYFADMFSKSANYCYANTGANDGVLLLCEVALGDMNELLYSDYNADNLPPGKLSTKGVGKTAPNPSEAQTLEDGVVVPLGKPVERSCSKGMLLYNEYIVYNVEQIKMRYVIQVKFNYKH

Experiments:
[1] = system: differentiating cells of Zinnia or of Helianthus tuberosum; conditions: literature; cited from earlier work
[2] = system: Arabidopsis shoots (C24; Columbia); assay: Fitness assay Arabidopsis (TTC-assay); assay type: in vivo; conditions: 2 mM niacinamide in incubation medium, about 20 hours; lines C24 and Columbia
APP [3] = target: T1, APP (Arabidopsis thaliana, UniProt Q11207); assay: In situ detection of poly(ADP-ribose) polymer with 10H monoclonal antibody in yeast spheroplasts expressing APP; assay type: cell-based; set-up: The full-length app cDNA was placed in pYeDP1/8-2 under the control of a galactose-inducible yeast promoter; expressed in transfected cells; host or cells: Saccharomyces cerevisiae strain DY transformed with pV8SPA, grown on galactose; conditions: DY(pV8SPA) cells grown on galactose in the presence of the inhibitor
Protocol: In situ antigen localization in yeast cells was carried out as described (Harlow and Lane, 1988). For the localization of the APP protein in yeast spheroplasts, anti-APP serum was diluted 1:3,000 to 1:5,000 in Tris-buffered saline-BSA buffer. 10H monoclonal antibody, which specifically recognizes poly(ADP-ribose) polymer (Ikajima et al., 1990) was used in a 1:100 dilution in PBS buffer. The mouse antibody were detected with the sheep anti-mouse IgG F(ab′)2 fragment conjugated to fluorescein isothiocyanate (FITC) (Sigma) at a dilution of 1:200. Rabbit IgG was detected with CY-3 conjugated sheep anti-rabbit IgG sheep F(ab)2 fragment (Sigma), at a dilution of 1:200. For the visualization of DNA, slides were incubated for 1 min in PBS with 10 μg ml^−1 of 4′,6-diamidino-2-phenylindole (DAPI; Sigma). Fluorescence imaging was performed on an Axioskop epifluorescence microscope (Zeiss, Jena, Germany). For observation of FITC and CY-3 fluorochromes, 23 and 15 filter cubes were used, respectively. Cells were photographed with Fuji Color-100 super plus film.
In addition, we tested whether APP was constitutively active in yeast cells, as has been reported for the human PARP (Collinge and Althaus, 1994). […] A positive yellowish-green fluorescence signal with 10H antibody was localized in the nucleus and was observed only in DY(pV8SPA) cells grown on galactose.

tobacco = conditions: Puchta et al., 1995; cited from earlier work
APP [4] = target: T1, APP; assay: Poly(ADP-ribose) polymerase activity assay in total protein extracts of yeast expressing APP

Row | Molecule | development of tracheary elements [1] | TTC-reducing capacity [2] | positive staining with 10H antibody (poly(ADP-ribose) polymers) in the nucleus (APP [3]) | rates of homologous intrachromosomal recombination (tobacco) | synthesis of poly(ADP-ribose) (APP [4]; 3ABA 3 mM in the reaction mix, nucleic acid depleted DY(pV8SPA) extract, FIG. 5B lane 5) | radioactivity incorporated into polymer (APP [4]; yeast strain grown with 3ABA (3 mM) versus without, 3ABA removed from extracts during desalting, FIG. 5A lane 1 vs 2) | radioactivity incorporated into poly(ADP-ribose), 40 μg/ml DNA versus 2 μg/ml DNA (APP [4]; sonicated salmon sperm DNA, phosphor-image scanning, FIG. 5B lanes 4 and 2) [fold]
1 | O=c1[nH]c2ccccc2c2ccccc12 [6(5H)-phenasthridinone] | prevent development of tracheary elements | – | – | – | – | – | –
2 | NC(=O)c1cccnc1 [nicotinamide] | prevent development of tracheary elements | higher TTC-reducing capacity | greatly reduced | – | – | – | –
3 | NC(=O)c1cccc(N)c1 [3ABA, 3-aminobenzamide] | prevent development of tracheary elements | – | greatly reduced | increased | sensitive; also recorded: blocked | More radioactivity was incorporated into polymer | –
4 | B1 | – | – | – | – | – | – | ~6
